Data published in patent US7553821B2, “Methods for selectively modulating survivin apoptosis pathways” (Yale University, priority 2000, dated 2009).

System: YUSAC-2 melanoma cells
Test: Apoptosis in Tet-regulated YUSAC-2 transfectants (DNA content, TUNEL, caspase-9 Western blot)
Format: cell-based, human
Conditions: for G2/M and apoptotic (sub-G1) DNA content after transgene induction: stably transfected YUSAC-2 lines, Tet withdrawn (transgene expressed)
Procedure: Three YUSAC-2 melanoma cell lines stably transfected with survivin(T34A) in pTet splice were analyzed for DNA content by propidium iodide staining and flow cytometry in the presence (Tet+) or absence (Tet−) of Tet. The percentages of cells with sub-G1 (apoptotic) DNA content after a 3-d culture at 37° C. are indicated.
The experimental conditions are the same as in A, except that a subclone of YUSAC-2 transfectants, F5.C4 was analyzed in the presence (Tet+) or in the absence (Tet−) of Tet for internucleosomal DNA fragmentation by end-labeling with terminal deoxynucleotidyl transferase (TdT) and a peroxidase-conjugated anti-digoxigenin antibody.
Tet+ and Tet− F5.C4 cells characterized as described in FIG. 4, were harvested at the indicated time intervals after thymidine release and immunoblotted with an antibody to caspase-9. TNF+CHX, extract of HeLa cells treated with 10 ng/ml TNFα plus 10 μg/ml cycloheximide. Arrows, position of ˜46 kDa proform caspase-9, and ˜35 kDa and ˜37 kDa active caspase-9 bands.
Cells were then fixed, permeabilized and stained with propidium iodide for DNA content as described (Grossman et al., 1999). The marker indicates the sub-G1 fraction, corresponding to apoptotic cells.
Cells were fixed in 1% paraformaldehyde for 10 minutes at room temperature and then permeabilized with acetic acid and ethanol for 5 minutes at […]. Arrows indicate TUNEL-reactive (Shockett et al., 1995) cells with apoptotic morphology.
Transfection experiments. For transient transfection, HeLa cells in C-6 tissue culture plates (Costar, Cambridge, Mass.) at ˜60-70% confluency, were incubated in 1 ml of serum-free OptiMEM medium (Life Technologies, Gaithersburg, Md.) for 20 min, and transfected with 2.5 μg of the various plasmid cDNAs plus 9 μl Lipofectamine (Life Technologies). After a 5 h incubation at 37° C., the mixture was aspirated and substituted with complete growth medium for 48-72 h. To generate stable YUSAC-2 transfectants, a survivin(T34A) cDNA was inserted into the HindIII-SpeI sites of the pTet-splice vector (Dr. D. Schatz, Yale University School of Medicine), downstream of the regulatory sequences of the Tet-resistance operon (TetO). YUSAC-2 cells were transfected with 0.8 μg pTet-T34A, 0.8 μg of the transactivation/selection plasmid ptTA-Neo and 5 μl Lipofectamine in 1 ml of OptiMem. Forty-eight h after transfection, cells were re-plated at low density in 15×150 mm plates in growth medium containing 1.5 mg/ml Geneticin (G418, Life Technologies), 2 mM sodium hydroxide and 0.5 μg/ml Tet (Sigma, St. Louis, Mo.) (selection medium). […] Gated GFP-expressing cells were analyzed for DNA content by flow cytometry on a FACSort (Becton Dickinson, San Jose, Calif.) using a Cell Quest software. […]

survivin(T34A): dominant-negative, non-phosphorylatable survivin mutant with Thr34→Ala substitution, expressed from transfected cDNA (also HA- or GFP-tagged)
internucleosomal DNA fragmentation by TUNEL (F5.C4 cells, Tet-deprived): stained intensely for internucleosomal DNA fragmentation by TUNEL
caspase-9 processing by Western blotting (cell cycle synchronized Tet− F5.C4 cells after thymidine release): time-dependent cleavage of 46 kDa proform caspase-9 and generation of ˜35 kDa and ˜37 kDa active caspase-9 bands
G2/M and apoptotic (sub-G1) DNA content after transgene induction: nearly complete loss of mitotic (G2/M) cells, and appearance of a prominent population with apoptotic (sub-G1) DNA content
G2/M and apoptotic (sub-G1) DNA content after transgene induction (listed as Thr^34→Ala mutant): progressive time-dependent loss of mitotic (G2/M) cells and coincident accumulation of apoptotic cells
